Results: patent US10710986B2, “PD-1/PD-L1 inhibitors” (Gilead Sciences, Inc., priority 2018, dated 2020)

Target: PD-1/PD-L1 (Homo sapiens (Human), UniProt Q9NZQ7)
Experiment: PD-1/PD-L1 biochemical protein-protein interaction assay (ALPHA)
Settings: 0.3 nM His tagged PD-L1, 2.5 nM biotinylated Fc-PD-1, 60 minutes at 25° C., read-out: IC50 PD-L1-PD1

Sequence of PD-1/PD-L1 (Q9NZQ7 19-238): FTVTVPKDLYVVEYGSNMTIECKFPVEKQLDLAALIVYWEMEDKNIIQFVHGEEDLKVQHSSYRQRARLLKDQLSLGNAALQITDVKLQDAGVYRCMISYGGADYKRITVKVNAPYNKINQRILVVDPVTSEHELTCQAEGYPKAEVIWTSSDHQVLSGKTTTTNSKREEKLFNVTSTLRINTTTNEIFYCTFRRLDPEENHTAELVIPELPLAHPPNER

| SMILES | IC50 [nM] |
| --- | --- |
| COc1nc(-c2cccc(-c3cccc(-c4cnc(CN5CC(c6ccccc6)C5)c(OC)n4)c3Cl)c2Cl)cnc1CNC[C@@H]1CCC(=O)N1 [compound 350] | 0.737 |
| COc1nc(-c2cccc(-c3cccc(-c4cnc(CN5CC(N6CCOCC6)C5)c(OC)n4)c3Cl)c2Cl)cnc1CNC[C@@H]1CCC(=O)N1 [compound 351] | 0.283 |
| COc1nc(-c2cccc(-c3cccc(-c4cnc(CN[C@H]5CC[C@H](O)C5)c(OC)n4)c3Cl)c2Cl)cnc1CNC[C@@H]1CCC(=O)N1 [compound 355] | 0.129 |
| COc1nc(-c2cccc(-c3cccc(-c4cnc(CN[C@H]5CC[C@@H](O)C5)c(OC)n4)c3Cl)c2Cl)cnc1CNC[C@@H]1CCC(=O)N1 [compound 356] | 0.102 |
| COc1nc(-c2cccc(-c3cccc(-c4cnc(CN[C@H]5C[C@H](S(C)(=O)=O)C5)c(OC)n4)c3Cl)c2Cl)cnc1CNC[C@@H]1CCC(=O)N1 [compound 357] | 0.096 |
| COc1nc(-c2cccc(-c3cccc(-c4cnc(CN[C@@H]5CCOC5)c(OC)n4)c3Cl)c2Cl)cnc1CNC[C@@H]1CCC(=O)N1 [compound 360] | 0.401 |
| COc1nc(-c2cccc(-c3cccc(-c4cnc(CNC5CC6(C5)CS(=O)(=O)C6)c(OC)n4)c3Cl)c2Cl)cnc1CNC[C@@H]1CCC(=O)N1 [compound 363] | 0.424 |
| COc1nc(-c2cccc(-c3cccc(-c4cnc(CN[C@H]5C[C@@H](OC)C5)c(OC)n4)c3Cl)c2Cl)cnc1CNC[C@@H]1CCC(=O)N1 [compound 365] | 0.07 |
| COc1nc(-c2cccc(-c3cccc(-c4cnc(CN[C@H]5C[C@H](C(C)(C)O)C5)c(OC)n4)c3Cl)c2Cl)cnc1CNC[C@@H]1CCC(=O)N1 [compound 366] | 0.115 |
| COc1nc(-c2cccc(-c3cccc(-c4cnc(CN5CC6(C5)CS(=O)(=O)C6)c(OC)n4)c3Cl)c2Cl)cnc1CNC[C@@H]1CCC(=O)N1 [compound 367] | 0.064 |
| COc1nc(-c2cccc(-c3cccc(-c4cnc(CN5CC6(CNC(=O)C6)C5)c(OC)n4)c3Cl)c2Cl)cnc1CNC[C@@H]1CCC(=O)N1 [compound 368] | 0.064 |
| COc1nc(-c2cccc(-c3cccc(-c4cnc(CN5CC(NC(C)=O)C5)c(OC)n4)c3Cl)c2Cl)cnc1CNC[C@@H]1CCC(=O)N1 [compound 369] | 0.078 |
| COc1nc(-c2cccc(-c3cccc(-c4cnc(CN5CC6(CCC(=O)N6)C5)c(OC)n4)c3Cl)c2Cl)cnc1CNC[C@@H]1CCC(=O)N1 [compound 371] | 0.213 |
| COc1nc(-c2cccc(-c3cccc(-c4cnc(CNC[C@@H]5CCC(=O)N5)c(OC)n4)c3Cl)c2Cl)cnc1CNCCN1CCCC1=O [compound 372] | 0.104 |
| COc1nc(-c2cccc(-c3cccc(-c4cnc(CNC[C@@H]5CCC(=O)N5)c(OC)n4)c3Cl)c2Cl)cnc1CNCCNC(C)=O [compound 373] | 0.13 |
| COc1nc(-c2cccc(-c3cccc(-c4cnc(CNC[C@@H]5CCC(=O)N5)c(OC)n4)c3Cl)c2Cl)cnc1CNCCO [compound 374] | 0.183 |
| COc1nc(-c2cccc(-c3cccc(-c4cnc(CNC(C)(C)CNC(C)=O)c(OC)n4)c3Cl)c2Cl)cnc1CNC[C@@H]1CCC(=O)N1 [compound 375] | 0.459 |
| COc1nc(-c2cccc(-c3cccc(-c4cnc(CNCC(C)(C)NC(C)=O)c(OC)n4)c3Cl)c2Cl)cnc1CNC[C@@H]1CCC(=O)N1 [compound 376] | 0.208 |
| COc1nc(-c2cccc(-c3cccc(-c4cnc(CN5CC(O)C5)c(OC)n4)c3Cl)c2Cl)cnc1CNC[C@@H]1CCC(=O)N1 [compound 379] | 0.155 |
| COc1nc(-c2cccc(-c3cccc(-c4cnc(CN5CC[C@@H](O)C5)c(OC)n4)c3Cl)c2Cl)cnc1CNC[C@@H]1CCC(=O)N1 [compound 380] | 0.203 |
| COc1nc(-c2cccc(-c3cccc(-c4cnc(CN[C@@H]5CCC[C@@H]5O)c(OC)n4)c3Cl)c2Cl)cnc1CNC[C@@H]1CCC(=O)N1 [compound 381] | 0.085 |
| COc1nc(-c2cccc(-c3cccc(-c4cnc(CNCC(C)(C)O)c(OC)n4)c3Cl)c2Cl)cnc1CNCC(C)(C)O [compound 382] | 0.289 |
| COc1nc(-c2cccc(-c3cccc(-c4cnc(CNC(C)(C)CO)c(OC)n4)c3Cl)c2Cl)cnc1CNC(C)(C)CO [compound 384] | 0.154 |
| COc1nc(-c2cccc(-c3cccc(-c4cnc([C@@H](C)N)c(OC)n4)c3Cl)c2Cl)cnc1[C@@H](C)N [compound 386] | 0.879 |

Other lines, results leading:

| IC50 [nM] | SMILES |
| --- | --- |
| 4.63 | COc1nc(-c2cccc(-c3cccc(-c4cnc(Cn5c(C)ccc5C)c(OC)n4)c3Cl)c2Cl)cnc1CNC[C@@H]1CCC(=O)N1 [compound 352] |
| 0.064 | COc1nc(-c2cccc(-c3cccc(-c4cnc(CN[C@@H]5CC[C@H](O)C5)c(OC)n4)c3Cl)c2Cl)cnc1CNC[C@@H]1CCC(=O)N1 [compound 353] |
| 0.133 | COc1nc(-c2cccc(-c3cccc(-c4cnc(CN[C@@H]5CC[C@@H](O)C5)c(OC)n4)c3Cl)c2Cl)cnc1CNC[C@@H]1CCC(=O)N1 [compound 354] |
| 0.141 | COc1nc(-c2cccc(-c3cccc(-c4cnc(CN[C@H]5C[C@@H](S(C)(=O)=O)C5)c(OC)n4)c3Cl)c2Cl)cnc1CNC[C@@H]1CCC(=O)N1 [compound 358] |
| 0.132 | COc1nc(-c2cccc(-c3cccc(-c4cnc(CN[C@H]5CCOC5)c(OC)n4)c3Cl)c2Cl)cnc1CNC[C@@H]1CCC(=O)N1 [compound 359] |
| 0.13 | COc1nc(-c2cccc(-c3cccc(-c4cnc(CN[C@H]5C[C@H](NC(C)=O)C5)c(OC)n4)c3Cl)c2Cl)cnc1CNC[C@@H]1CCC(=O)N1 [compound 361] |
| 0.074 | COc1nc(-c2cccc(-c3cccc(-c4cnc(CN[C@H]5C[C@@H](NC(C)=O)C5)c(OC)n4)c3Cl)c2Cl)cnc1CNC[C@@H]1CCC(=O)N1 [compound 362] |
| 0.244 | COc1nc(-c2cccc(-c3cccc(-c4cnc(CN[C@H]5C[C@H](OC)C5)c(OC)n4)c3Cl)c2Cl)cnc1CNC[C@@H]1CCC(=O)N1 [compound 364] |
| 0.064 | COc1nc(-c2cccc(-c3cccc(-c4cnc(CNC[C@@H]5CCC(=O)N5)c(OC)n4)c3Cl)c2Cl)cnc1CNCCn1ccccc1=O [compound 370] |
| 0.098 | COc1nc(-c2cccc(-c3cccc(-c4cnc(CNC(C)(C)CO)c(OC)n4)c3Cl)c2Cl)cnc1CNC[C@@H]1CCC(=O)N1 [compound 377] |
| 0.396 | COc1nc(-c2cccc(-c3cccc(-c4cnc(CNCC(C)(C)O)c(OC)n4)c3Cl)c2Cl)cnc1CNC[C@@H]1CCC(=O)N1 [compound 378] |
| 0.887 | COc1nc(-c2cccc(-c3cccc(-c4cnc(CN[C@@H]5CCC[C@@H]5O)c(OC)n4)c3Cl)c2Cl)cnc1CN[C@@H]1CCC[C@@H]1O [compound 383] |
| 0.292 | COc1nc(-c2cccc(-c3cccc(-c4cnc([C@H](C)N)c(OC)n4)c3Cl)c2Cl)cnc1[C@H](C)N [compound 385] |
| 0.625 | COc1nc(-c2cccc(-c3cccc(-c4cnc(CN[C@@H]5CC[C@@H]6CC(=O)N[C@@H]65)c(OC)n4)c3Cl)c2Cl)cnc1CNC[C@@H]1CCC(=O)N1 [compound 387] |
| 1.22 | COc1nc(-c2cccc(-c3cccc(-c4cnc(CN[C@@H]5CC[C@@H]6CC(=O)N[C@@H]65)c(OC)n4)c3Cl)c2Cl)cnc1CN[C@@H]1CC[C@@H]2CC(=O)N[C@@H]21 [compound 388] |
| 0.211 | COc1nc(-c2cccc(-c3cccc(-c4cnc(CN5CC6(CNC(=O)C6)C5)c(OC)n4)c3Br)c2Cl)cnc1CN1CC2(CNC(=O)C2)C1 [compound 389] |
